Data set [1] can be described thus: Binding affinity to SARS CoV Main protease incubated for 20 mins by reverse-phase HPLC analysis. On the set-up: species or system Severe acute respiratory syndrome-related coronavirus.
Data set [2] deals with T1, Replicase polyprotein 1ab (Severe acute respiratory syndrome coronavirus 2, UniProt P0DTD1). As to the kind of experiment: Inhibition of SARS CoV-2 Main protease using MCA-AVLQSGFR-Lys(DNP)-Lys-NH2 peptide as substrate by fluorescence based analysis.
Data set [3] concerns SARS-CoV. In kind it is functional, organism-based, Vero E6. As to conditions: Severe acute respiratory syndrome-related coronavirus, 2019-nCoV/USA_WA1/2020, Vero C1008, 72 h.
Data set [4] in a line: Binding affinity to SARS CoV N-terminal his-tagged Main protease using Dabcyl-KTSAVLQSGFRKME-Edan peptide as substrate by fluorescence based analysis. On the set-up: species or system Severe acute respiratory syndrome-related coronavirus.
A short description of data set [5]: Oral bioavailability in Sprague-Dawley rat. The class given is ADME, organism-based. As to conditions: in vivo.
Data set [6] is described as follows: Cytotoxicity against African green monkey Vero E6 cells assessed as reduction of cell viability by XTT assay. In kind it is toxicity, cell-based, Vero C1008. The conditions noted are these: chlorocebus sabaeus.
Data set [7] is described as follows: Cytotoxicity against human Huh-7 cells assessed as reduction of cell viability. The class given is toxicity, cell-based.
Data set [8] in a line: Inhibition of SARS CoV Main protease by FRET assay. On the set-up: species or system Severe acute respiratory syndrome-related coronavirus.
Data set [9] can be described thus: Cytotoxicity against mouse L929 cells assessed as reduction of cell viability. The class given is toxicity, cell-based.
The nature of data set [10]: Cytotoxicity against human HCT-8 cells assessed as reduction in cell viability by neutral red uptake assay. In kind it is toxicity, cell-based.
Data set [11] is described as follows: Cytotoxicity against cat CRFK cells assessed as reduction of cell viability. The class given is toxicity, cell-based, Felis catus.
For data set [12], the system named is SARS-CoV-2. In kind it is functional, organism-based, Vero E6. As to conditions: Severe acute respiratory syndrome coronavirus 2, Vero C1008.
Data set [13] is described as follows: Inhibition of SARS CoV N-terminal his-tagged Main protease using Dabcyl-KTSAVLQSGFRKME-Edan peptide as substrate by fluorescence based analysis. Set-up: species or system Severe acute respiratory syndrome-related coronavirus.
Data set [14] in a line: Binding affinity to SARS CoV Main protease incubated for 10 mins by FRET assay. Set-up: species or system Severe acute respiratory syndrome-related coronavirus.
Data set [15] deals with T1, Replicase polyprotein 1ab. The data set can be described thus: Inhibition of N-terminal MBP-tagged SARS CoV-2 Main protease by fluorescence based analysis.
The nature of data set [16]: Cytotoxicity against human Caco-2 cells assessed as reduction in cell viability by neutral red uptake assay. In kind it is toxicity, cell-based.
Data set [17] is described as follows: Cytotoxicity against dog MDCK cells assessed as reduction in cell viability by neutral red uptake assay. The class given is toxicity, cell-based, Canis lupus familiaris.
Data set [18] can be described thus: Cytotoxicity against human A549 cells assessed as reduction in cell viability by neutral red uptake assay. In kind it is toxicity, cell-based.
Data set [19] in a line: Cytotoxicity against African green monkey Vero cells assessed as reduction in cell viability by neutral red uptake assay. The class given is toxicity, cell-based. As to conditions: chlorocebus sabaeus.
Data set [20] in a line: Cytotoxicity against African green monkey Vero E6 cells assessed as reduction of cell viability by CellTiterGlo assay. The class given is toxicity, cell-based, Vero C1008. As to conditions: chlorocebus sabaeus. (Cellular ATP, detected with luciferase, serves as a proxy for viable cell number.)

Here are results for 18 compounds from ChEMBL document CHEMBL5244279, “Perspectives on SARS-CoV-2 Main Protease Inhibitors” (J Med Chem, 2021).

Broadly, the Ki is a dissociation constant, usually derived from enzyme kinetics or from competition with a known ligand. As usually defined, the IC50 is the concentration needed to halve the response being measured. By EC50 is commonly meant the concentration needed to bring the measured effect to its halfway point. A word on the bioavailability: it is dose-corrected exposure relative to a reference, in per cent. What is called CC50 is the concentration giving 50% cytotoxicity.

The structures appear in SMILES notation. Peptide text beside a SMILES is read from it. Where only a bound is given, the exact number is not on record here.

`CCOC(=O)/C=C/[C@H](C[C@@H]1CCNC1=O)NC(=O)[C@H](CC(C)C)NC(=O)[C@@H](NC(=O)OCc1ccccc1)[C@@H](C)OC(C)(C)C` displayed a Ki in [1] of 0.058 µM. Also, the IC50 in [2] came to 0.151 µM. Further, the EC50 in data set [3] is 2.88 µM.

Regarding `CC(=O)/C=C/[C@H](C[C@@H]1CCNC1=O)NC(=O)[C@H](CC(C)C)NC(=O)[C@H](CNC(=O)C(C)(C)C)NC(=O)OCc1ccccc1`, the Ki in [1] turned out to be 0.038 µM.

`O=C(On1nnc2ccccc21)c1ccc2[nH]cnc2c1` gave a Ki in data set [4] of 0.0229 µM.

With `O=C[C@H](C[C@@H]1CCNC1=O)NC(=O)[C@@H]1[C@H]2CCC[C@H]2CN1C(=O)COc1ccc(Cl)cc1Cl`, the bioavailability in data set [5] was 11.2%.

`CCOC(=O)/C=C/[C@H](Cc1ccccc1)NC(=O)[C@H](Cc1ccccc1)NC(=O)/C=C\c1ccc(N(C)C)cc1` showed a Ki in data set [1] of 0.66 µM. Moreover, the CC50 in data set [6] was over 200 µM. In addition, the EC50 in data set [3] came to 18 µM.

Regarding `CC(C)C[C@H](NC(=O)OC1CCC(F)(F)CC1)C(=O)N[C@@H](C[C@@H]1CCNC1=O)C(O)S(=O)(=O)O` (stereo not given in full), the CC50 in data set [7], in data set [9], in data set [10] and in data set [11] was over 100 µM in each case. Besides, in data set [8], inhibition was half-maximal at 2.2 µM (IC50).

In the case of `CC(C)C[C@H](NC(=O)OC1CCC(F)(F)CC1)C(=O)N[C@H](C=O)C[C@@H]1CCNC1=O`, the CC50 in data set [7], in data set [9] and in [11] was over 100 µM throughout. For the same compound, the IC50 in data set [8] turned out to be 0.48 µM; in data set [12], 2.3 µM.

In data set [13], `CC(C)[C@H](NC(=O)[C@H](C)NC(=O)OCc1ccccc1)C(=O)N[C@@H](Cc1c[nH]c2ccccc12)[C@@H](O)[C@H](O)[C@@H](Cc1c[nH]c2ccccc12)NC(=O)[C@@H](NC(=O)[C@H](C)NC(=O)OCc1ccccc1)C(C)C` had a Ki of 0.073 µM.

Consider `CCCCC1CCC(OC(=O)N[C@@H](CC(C)C)C(=O)N[C@@H](C[C@@H]2CCNC2=O)C(O)S(=O)(=O)O)CC1` (stereo not given in full), for which the CC50 in data set [7], in [9] and in data set [11] was 59.1 µM in each case. For the same compound, half-maximal inhibition in data set [8] (IC50) required 1 µM.

Compound `CN(C)c1ccc(C(=O)On2nnc3ccccc32)cc1` showed a Ki in [4] of 0.0174 µM.

Take `CC(C)C[C@H](NC(=O)/C=C\c1ccccc1)C(=O)N[C@H](C=O)C[C@@H]1CCCNC1=O`: the affinity in data set [14] corresponds to a Ki of 0.053 µM.

Regarding `O=C(On1nnc2ccccc21)c1cc2cc(F)ccc2[nH]1`, the affinity in [4], expressed as Ki, was 0.0138 µM.

As to `CC(C)C[C@H](NC(=O)OC1CCCCC1)C(=O)N[C@@H](C[C@@H]1CCNC1=O)C(O)S(=O)(=O)O` (stereo not given in full), the CC50 in [7], in data set [9] and in data set [11] was over 100 µM throughout. In addition, the IC50 in data set [8] turned out to be 3.8 µM.

Consider `CC(C)C[C@H](NC(=O)[C@@H](NC(=O)OCc1ccccc1)[C@@H](C)OC(C)(C)C)C(=O)N[C@H](/C=C/C(=O)C1CC1)C[C@@H]1CCNC1=O`, for which the Ki in data set [1] amounted to 0.099 µM.

Take `CC(=O)N[C@H](C(=O)N[C@H](C(=O)N[C@@H](CC(C)C)C(=O)N[C@@H](CCC(=O)N(C)C)C(=O)Cn1[nH]c(=O)c2c([N+](=O)[O-])cccc2c1=O)[C@@H](C)OCc1ccccc1)C(C)C`: in data set [15], inhibition was half-maximal at 0.6 µM (IC50).

In data set [13], `Cc1cc(-c2ccc(N/N=C3\C=Cc4c(S(=O)(=O)O)cc(S(=O)(=O)O)c(N)c4C3=O)c(C)c2)ccc1N/N=C1\C=Cc2c(S(=O)(=O)O)cc(S(=O)(=O)O)c(N)c2C1=O` had an IC50 of 0.2 µM and a Ki of 0.073 µM.

For the compound `CSCC[C@@H](C=O)NC(=O)[C@H](CC(C)C)NC(=O)[C@H](CC(C)C)NC(C)=O` (Ac-Leu-Leu-Met-aldehyde), the CC50 in data set [16], in data set [17], in data set [18] and in data set [19] was over 100 µM throughout.

For `O=c1cc(-c2ccccc2)oc2cc(O)c(O)c(O)c12` [BAICALEIN], the CC50 in data set [20] is over 200 µM.
